Data taken from the Kinase Knowledgebase extract (Sharma et al. 2016).

target: PIK3CA (human) (UniProt P42336); experiment: Assessment of PI3KCA Kinase Activity
Sequence (P42336 whole entry, looked up): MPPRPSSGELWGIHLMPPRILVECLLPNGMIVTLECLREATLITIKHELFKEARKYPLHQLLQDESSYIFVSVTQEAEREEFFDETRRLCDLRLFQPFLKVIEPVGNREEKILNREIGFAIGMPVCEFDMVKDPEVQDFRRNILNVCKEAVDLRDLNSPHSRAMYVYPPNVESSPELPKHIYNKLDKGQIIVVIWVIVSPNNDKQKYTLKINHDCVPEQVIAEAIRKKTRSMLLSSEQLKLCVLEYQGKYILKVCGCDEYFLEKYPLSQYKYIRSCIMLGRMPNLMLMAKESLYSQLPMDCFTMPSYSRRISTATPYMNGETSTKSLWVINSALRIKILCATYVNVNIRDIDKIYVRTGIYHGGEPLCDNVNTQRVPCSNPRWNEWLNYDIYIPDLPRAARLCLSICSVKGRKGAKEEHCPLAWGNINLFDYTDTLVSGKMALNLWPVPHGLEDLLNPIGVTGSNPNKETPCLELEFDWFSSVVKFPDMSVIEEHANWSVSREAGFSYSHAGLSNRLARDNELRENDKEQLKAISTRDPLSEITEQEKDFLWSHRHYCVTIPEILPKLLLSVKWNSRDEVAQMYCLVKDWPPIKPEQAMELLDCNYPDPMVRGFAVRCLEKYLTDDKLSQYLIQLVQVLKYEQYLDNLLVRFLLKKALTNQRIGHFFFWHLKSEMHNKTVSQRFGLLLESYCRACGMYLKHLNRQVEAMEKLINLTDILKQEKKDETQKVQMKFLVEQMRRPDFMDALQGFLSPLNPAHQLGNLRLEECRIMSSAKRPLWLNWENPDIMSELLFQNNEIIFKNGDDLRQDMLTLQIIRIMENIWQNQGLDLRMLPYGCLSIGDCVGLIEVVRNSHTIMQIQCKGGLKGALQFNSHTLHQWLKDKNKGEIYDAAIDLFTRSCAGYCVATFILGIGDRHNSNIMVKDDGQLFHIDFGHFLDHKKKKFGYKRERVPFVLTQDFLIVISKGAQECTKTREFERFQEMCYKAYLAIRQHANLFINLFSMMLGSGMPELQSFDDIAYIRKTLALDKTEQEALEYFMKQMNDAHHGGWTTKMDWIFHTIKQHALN

IC50	Compound
< 100 nM	Cc1nn2ccsc2c1-c1nc(OCc2ccccc2)c(-c2nnc[nH]2)s1
100 to 1000 nM	Cc1nn2ccccc2c1-c1nc(-c2cccc3ncccc23)c(-c2nc[nH]n2)s1
100 to 1000 nM	N#Cc1c(-c2ccnc(NS(=O)(=O)c3ccccc3)c2)sc(-c2nnc[nH]2)c1-c1ccc(Cl)cc1Cl
< 100 nM	CCOc1nc(-c2ccnc(NC(C)=O)c2)sc1-c1nnc[nH]1
< 100 nM	N#Cc1c(-c2ccnc(NC(N)=O)c2)sc(-c2nnc[nH]2)c1-c1ccc(Cl)cc1Cl
< 100 nM	Cc1nn2ccccc2c1-c1nc(N(C)c2ccc(Cl)cc2)c(-c2nnc[nH]2)s1
100 to 1000 nM	Clc1cc(-c2nc(-c3ccccc3)c(-c3nnc[nH]3)s2)ccn1
< 100 nM	CC(=O)Nc1cc(-c2sc(-c3cnn[nH]3)c(-c3ccc(Cl)cc3Cl)c2C#N)ccn1
< 100 nM	Cc1nc2sccn2c1-c1nc(-c2ccccc2)c(-c2nnc[nH]2)s1
100 to 1000 nM	N#Cc1c(-c2ccnc(NC(=O)CCc3ccccc3)c2)sc(-c2nnc[nH]2)c1-c1ccc(Cl)cc1Cl
< 100 nM	Cc1nn2ccc(OCCN3CCOCC3)cc2c1-c1nc(-c2ccccc2)c(-c2nnc[nH]2)s1
100 to 1000 nM	CC(=O)Nc1cc(-c2nc(-c3ccc(C(C)(C)C#N)cc3)c(-c3ncc[nH]3)s2)ccn1
< 100 nM	COc1cccc(F)c1-c1nc(-c2c(C)nn3ccc(OCCN4CCN(S(C)(=O)=O)CC4)cc23)sc1-c1nc[nH]n1
< 100 nM	CC(=O)Nc1cc(-c2sc(-c3cnc[nH]3)c(-c3ccc(Cl)cc3Cl)c2C#N)ccn1
< 100 nM	N#Cc1c(-c2ccnc(NC(N)=O)c2)sc(-c2ccn[nH]2)c1-c1ccc(Cl)cc1Cl
< 100 nM	CC(=O)Nc1cc(-c2sc(-c3nnc[nH]3)c(-c3ccc(Cl)cc3Cl)c2C#N)ccn1
100 to 1000 nM	CC(=O)Nc1cc(-c2nc(-c3csc4ccccc34)c(-c3ncc[nH]3)s2)ccn1
< 100 nM	Cc1nc2ccc(C(O)CO)cn2c1-c1nc(-c2ccccc2)c(-c2nnc[nH]2)s1 (centres undefined)
100 to 1000 nM	Nc1cc(-c2nc(-c3ccccc3)c(-c3nnc[nH]3)s2)ccn1
< 100 nM	COc1cccc(F)c1-c1nc(-c2c(C)nn3ccc(OCCN4CCN(C)CC4)cc23)sc1-c1nc[nH]n1
100 to 1000 nM	N#Cc1c(-c2ccncc2)sc(-c2nnc[nH]2)c1-c1ccc(Cl)cc1Cl
100 to 1000 nM	N#Cc1c(-c2ccnc(N)c2)sc(-c2cnn[nH]2)c1-c1ccc(Cl)cc1Cl
< 100 nM	COCCCNc1nccc(-c2sc(-c3nnc[nH]3)c(-c3ccc(Cl)cc3Cl)c2C#N)n1

IC50	Compound
100 to 1000 nM	CCOc1nc(-c2ccnc(NC(=O)c3cccc(OC)c3)c2)sc1-c1nnc[nH]1
< 100 nM	Cc1nn2ccc(OCCNC(=O)C(C)(C)C)cc2c1-c1nc(-c2ccccc2)c(-c2nc[nH]n2)s1
< 100 nM	O=C(Nc1cc(-c2nc(-c3ccc(Cl)cc3Cl)c(-c3ncc[nH]3)s2)ccn1)C1CC1
100 to 1000 nM	CC(=O)Nc1cc(-c2nc(-c3ccc(CO)cc3)c(-c3ncc[nH]3)s2)ccn1
100 to 1000 nM	N#Cc1c(-c2ccncc2)sc(C(N)=O)c1-c1ccc(Cl)cc1Cl
< 100 nM	CC(=O)Nc1cc(-c2sc(-c3ncc[nH]3)c(-c3ccc(Cl)cc3Cl)c2C#N)ccn1
< 100 nM	Nc1cc(-c2cc(-c3ccc(Cl)cc3Cl)c(-c3ncc[nH]3)s2)ccn1
100 to 1000 nM	CC(=O)Nc1cc(-c2nc(-c3c(C)cccc3C)c(-c3nnc[nH]3)s2)ccn1
100 to 1000 nM	CC(=O)Nc1cc(-c2nc(-c3ccccc3)c(-c3ncc[nH]3)s2)ccn1
100 to 1000 nM	CCOc1nc(-c2ccnc(NC(=O)CC(C)C)c2)sc1-c1nnc[nH]1
< 100 nM	Cc1cc(-c2cc(-c3ccc(Cl)cc3Cl)c(-c3ncc[nH]3)s2)ccn1
< 100 nM	Cc1nc2ccc(CNCCCN)cn2c1-c1nc(-c2ccccc2)c(-c2nnc[nH]2)s1
< 100 nM	Cc1nn2ccccc2c1-c1nc(-c2ccc(F)cc2F)c(-c2nc[nH]n2)s1
100 to 1000 nM	CC(=O)Nc1cc(-c2nc(-c3ccc(Cl)cc3Cl)c(-c3nc(C)c(C)[nH]3)s2)ccn1
< 100 nM	Cc1nn2ccc(OCCO)cc2c1-c1nc(-c2ccccc2)c(-c2nnc[nH]2)s1
100 to 1000 nM	N#Cc1c(-c2ccnc(F)c2)sc(C(N)=O)c1-c1ccc(Cl)cc1Cl
< 100 nM	CC(C)(C)OC(=O)Nc1cc(-c2sc(-c3ncc[nH]3)c(-c3ccc(Cl)cc3Cl)c2C#N)ccn1
< 100 nM	CCOc1nc(-c2ccnc(NC(=O)c3cccc(F)c3)c2)sc1-c1nnc[nH]1
100 to 1000 nM	CN(C)CC(=O)Nc1cc(-c2sc(-c3nnc[nH]3)c(-c3ccc(Cl)cc3Cl)c2C#N)ccn1
100 to 1000 nM	CC(=O)Nc1cc(-c2nc(-c3ccc(Oc4ccccc4)cc3)c(-c3ncc[nH]3)s2)ccn1
< 100 nM	Cc1nn2ccc(OCCN3CCCCC3)cc2c1-c1nc(-c2ccccc2)c(-c2nnc[nH]2)s1
< 100 nM	Cc1nc(NC(=O)C2CC2)sc1-c1nc(-c2ccccc2)c(-c2nc[nH]n2)s1
< 100 nM	Cc1nn2ccc(OC3CCN(C(=O)CO)CC3)cc2c1-c1nc(-c2ccccc2)c(-c2nnc[nH]2)s1

IC50	Compound
< 100 nM	Cc1nn2ccccc2c1-c1nc(C2CCCCC2)c(-c2nnc[nH]2)s1
100 to 1000 nM	Cc1nc2scc(C)n2c1-c1nc(-c2ccccc2)c(-c2nc[nH]n2)s1
< 100 nM	Cc1cccc(C)c1-c1nc(-c2c(C)nn3ccccc23)sc1-c1nc[nH]n1
100 to 1000 nM	CCCC(=O)Nc1cc(-c2nc(OCC)c(-c3nnc[nH]3)s2)ccn1
100 to 1000 nM	CCOc1nc(-c2ccnc(NC(=O)c3cc(C)on3)c2)sc1-c1nnc[nH]1
100 to 1000 nM	CCOc1nc(-c2ccnc(NC(=O)Cc3cccs3)c2)sc1-c1nnc[nH]1
< 100 nM	Cc1nn2ccc(OCCN3CCN(S(C)(=O)=O)CC3)cc2c1-c1nc(-c2ccccc2)c(-c2nc[nH]n2)s1
100 to 1000 nM	CC(=O)Nc1cc(-c2nc(Br)c(-c3ncc[nH]3)s2)ccn1
< 100 nM	COc1ccccc1-c1nc(-c2c(C)nn3ccccc23)sc1-c1nnc[nH]1
< 100 nM	O=c1ccc2c(-c3nc(-c4ccc(Cl)cc4Cl)c(-c4ncc[nH]4)s3)ccnc2[nH]1
< 100 nM	Cc1nn2ccsc2c1-c1nc(-c2ccccc2)c(-c2ccn[nH]2)s1
100 to 1000 nM	COCCNc1cc(-c2sc(-c3nnc[nH]3)c(-c3ccc(Cl)cc3Cl)c2C#N)ccn1
100 to 1000 nM	N#Cc1c(-c2ccnc(NC(=O)c3ccncc3)c2)sc(-c2nnc[nH]2)c1-c1ccc(Cl)cc1Cl
100 to 1000 nM	CC(C)(C)OC(=O)Nc1cc(-c2sc(-c3nnc[nH]3)c(-c3ccc(Cl)cc3Cl)c2C#N)ccn1
< 100 nM	Cc1nn2ccsc2c1-c1nc(-c2ccc(F)c(F)c2)c(-c2nnc[nH]2)s1
100 to 1000 nM	CC(=O)Nc1cc(-c2nc(-c3ccc(N(C)C)cc3)c(-c3ncc[nH]3)s2)ccn1
< 100 nM	Clc1ccc(-c2nc(-c3ccnc4[nH]ccc34)sc2-c2ncc[nH]2)c(Cl)c1
< 100 nM	CCC(=O)Nc1cc(-c2nc(-c3ccc(Cl)cc3Cl)c(-c3ncc[nH]3)s2)ccn1
100 to 1000 nM	CCOc1nc(-c2ccnc(NC(=O)c3ccc(F)cc3)c2)sc1-c1nnc[nH]1
< 100 nM	Cc1nn2ccccc2c1-c1nc(OCc2ccccc2)c(-c2nnc[nH]2)s1
< 100 nM	Cc1nn2ccc(OCCN3CCN(C)CC3)cc2c1-c1nc(-c2ccccc2)c(-c2nc[nH]n2)s1
< 100 nM	Cc1nn2ccccc2c1-c1nc(-c2c(F)cccc2Cl)c(-c2nc[nH]n2)s1
100 to 1000 nM	CC(=O)Nc1cc(-c2nc(-c3ccc(N)nc3)c(-c3ncc[nH]3)s2)ccn1
